This is an account of results in ChEMBL document CHEMBL4028849 (J Med Chem, 2017).

As usually defined, the logP is a log measure of how a compound divides between an organic and an aqueous phase. A higher logP goes with a more lipophilic compound.

One data set in a line: n-Octanol-water partition co-efficient, log P of the compound at 1 mg/ml by HPLC analysis. The class given is physicochemical.
Details: not given
The compound `COc1ccc2c(c1)NC(=O)CN2c1nc(NC2CC2)nc2ccccc12` yielded a logP of 2.26.

`CCCCNc1nc(N2CC(=O)Nc3cc(OC)ccc32)c2ccccc2n1`: the logP stood at 3.91.

Compound `COc1ccc2c(c1)NC(=O)CN2c1nc(NC2CCCC2)nc2ccccc12` registered a logP of 2.33.

`CNc1nc(N2CC(=O)Nc3cc(OC)ccc32)c2ccccc2n1` showed a logP of 2.77. Still for that read-out and setting: next, `COc1ccc2c(c1)NC(=O)CN2c1nc(N2CCC(F)(F)C2)nc2ccccc12`: 2.48. With `COc1ccc2c(c1)NC(=O)CN2c1nc(COC(C)=O)nc2ccccc12`, the log partition coefficient (logP) came out at 2.7. On the same count and under the same terms, next, `COc1ccc2c(c1)NC(=O)CN2c1nc(CO)nc2ccccc12`: 2.14; `COc1ccc2c(c1)NC(=O)CN2c1nc(N2CC(F)(F)C2)nc2ccccc12`: 2.14; `COc1ccc2c(c1)NC(=O)CN2c1nc(NCCCO)nc2ccccc12`: 2.6. The compound `CCNc1nc(N2CC(=O)Nc3cc(OC)ccc32)c2ccccc2n1` returned a logP of 2.56. Regarding `COc1ccc2c(c1)NC(=O)CN2c1nc(Cl)nc2ccccc12`, the logP came to 2.94.

The next data set can be described thus: Terminal half life in Sprague-Dawley rat at 1 mg/kg, iv. The following applies: in vivo, read-out: beta t1/2 (converted). It counts as ADME, organism-based.
As to `COc1ccc2c(c1)NC(=O)CN2c1nc(C)nc2ccccc12`, the half-life is 52 h.
